Here are results for eight compounds from ChEMBL document CHEMBL5126654, “Cyclopiazonic Acid and Okaramine Analogues, Including Chlorinated Compounds, from Chrysosporium undulatum YT-1” (2022).

One experiment deals with Helicoverpa armigera. Put plainly: Insecticidal activity against third instar larvae of Helicoverpa armigera (cotton bollworms) measured after 24 hrs. Type of experiment: functional.
A further experiment has as its system Bombyx mori. Put plainly: Insecticidal activity against third instar larvae of Bombyx mori (silkworm) measured after 24 hrs. Type of experiment: functional.
The test system of a further experiment is Bacillus subtilis. As to the kind of experiment: Antibacterial activity against Bacillus subtilis measured after 24 hrs by agar diffusion method. Type of experiment: functional. (In general: In agar diffusion tests the substance spreads into inoculated agar from a disc or well.)
Another experiment relates to PC12D. Put plainly: Neuroprotective activity in rat PC12 cells assessed as reduction in 6-OHDA-induced cell death at 40 uM pretreated for 30 mins followed by 6-OHDA stimulation and measured after 24 hrs by MTT assay. The following applies: time 24.5 hrs. Type of experiment: functional, cell-based. On the technique in general: Tetrazolium assays rely on reduction of a dye to a coloured formazan, in cell work by metabolically active cells.

≈ marks a conversion by molar mass, not a printed value. Calls of active or inactive are those of the source. The rule behind the calls is not given here. Some results are limits rather than exact numbers.

The LD50 is the dose at which mortality reaches 50%. A low value points to a more toxic substance. Consider `CO[C@@H]1[C@]2(O)c3cc(O)ccc3N3C(C)(C)[C@H](C)[C@]32N2C(=O)/C3=C/c4c([nH]c5cc(Cl)ccc45)C(C)(C)/C=C\N3C(=O)[C@]12O`, for which the LD50 in the experiment with Helicoverpa armigera was 0.06 mg/kg; in the experiment on Bombyx mori it was 0.61 mg/kg.
As a reminder, the MIC is the least concentration at which growth counts as inhibited. The low end stands for greater potency, the high end for weaker potency. For the compound `C/C(O)=C1\C(=O)[C@@H]2[C@H]3c4c[nH]c5cc(Cl)cc(c45)[C@@H](O)[C@H]3C(C)(C)N2C1=O`, the MIC in the experiment on Bacillus subtilis was 6.3 µg/mL (≈ 16.3 µM).
In the case of `CO[C@@H]1[C@]2(O)c3cc(O)ccc3N3C(C)(C)[C@H](CO)[C@]32N2C(=O)/C3=C/c4c([nH]c5ccccc45)C(C)(C)/C=C\N3C(=O)[C@]12O`, the LD50 in the experiment on Helicoverpa armigera and in the experiment with Bombyx mori was over 100 mg/kg throughout.
For `CO[C@@H]1[C@]2(O)c3cc(O)ccc3N3C(C)(C)[C@H](C)[C@]32N2C(=O)/C3=C/c4c([nH]c5ccccc45)C(C)(C)/C=C\N3C(=O)[C@]12O`, the figures for the LD50 with Helicoverpa armigera and with Bombyx mori were under 0.01 mg/kg and 0.07 mg/kg, respectively.
For `C=C(C)[C@H]1Cc2c(ccc3c2O[C@@H]2COc4cc(OC)c(OC)cc4[C@@H]2C3=O)O1` [ROTENONE], the LD50 with Helicoverpa armigera turned out to be 5.79 mg/kg; in the experiment with Bombyx mori it was 37.8 mg/kg.
The like results for `CO[C@@H]1[C@]2(O)c3cccc(O)c3N3C(C)(C)[C@H](C)[C@]32N2C(=O)/C3=C/c4c([nH]c5cc(Cl)ccc45)C(C)(C)/C=C\N3C(=O)[C@]12O` were, in that order, 4.13 mg/kg and 7.56 mg/kg.
As for `CC(NCCc1ccccc1)=C1C(=O)[C@@H]2[C@H]3c4c[nH]c5cccc(c45)C[C@H]3C(C)(C)N2C1=O` (mixture of isomers), the outcome in the experiment on PC12D was Active.
Turning to `CO[C@@H]1[C@]2(O)c3cc(O)ccc3N3C(C)(C)[C@H](CO)[C@]32N2C(=O)/C3=C/c4c([nH]c5cc(Cl)ccc45)C(C)(C)/C=C\N3C(=O)[C@]12O`, the LD50 in the experiment on Helicoverpa armigera and in the experiment with Bombyx mori was over 100 mg/kg each time.
